Assay results: ChEMBL document CHEMBL4043241, “Development and evaluation of 4-(pyrrolidin-3-yl)benzonitrile derivatives as inhibitors of lysine specific demethylase 1” (Bioorg Med Chem Lett, 2017)

Experiments:
[1] = target: T1, Lysine-specific histone demethylase 1A (Homo sapiens, UniProt O60341); assay: Binding affinity to LSD1 (unknown origin) by SPR analysis
[2] = target: Voltage-gated inwardly rectifying potassium channel KCNH2 (Homo sapiens, UniProt Q12809); assay: Inhibition of human ERG expressed in CHO cells by Ionworks electrophysiology method; assay type: cell-based
[3] = target: T1, Lysine-specific histone demethylase 1A
Description: Inhibition of recombinant human N-terminal truncated LSD1 (151 to 852 residues) expressed in Escherichia coli using histone H3(1-21)K4(Me1) biotin peptide as substrate measured after 30 mins by TR-FRET assay

[4] = target: T2, Amine oxidase [flavin-containing] A (Homo sapiens, UniProt P21397); assay: Inhibition of recombinant human MAO-A expressed in supersomes using kynuramine as substrate by LC-MS/MS analysis
T2 sequence (P21397 whole entry): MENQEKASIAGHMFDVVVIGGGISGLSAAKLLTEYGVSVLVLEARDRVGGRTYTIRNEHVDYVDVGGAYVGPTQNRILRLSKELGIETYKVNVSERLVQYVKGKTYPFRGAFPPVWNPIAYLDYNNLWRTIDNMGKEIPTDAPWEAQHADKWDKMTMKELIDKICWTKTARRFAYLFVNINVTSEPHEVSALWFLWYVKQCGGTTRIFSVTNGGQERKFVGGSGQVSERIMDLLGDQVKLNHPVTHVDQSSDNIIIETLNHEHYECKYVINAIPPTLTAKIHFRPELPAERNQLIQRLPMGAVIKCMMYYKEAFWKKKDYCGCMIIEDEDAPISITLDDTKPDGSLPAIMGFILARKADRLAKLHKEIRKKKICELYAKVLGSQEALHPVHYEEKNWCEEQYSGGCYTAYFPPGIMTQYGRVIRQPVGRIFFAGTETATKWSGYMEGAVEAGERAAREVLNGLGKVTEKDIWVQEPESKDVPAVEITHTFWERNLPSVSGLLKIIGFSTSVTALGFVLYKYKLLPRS

[5] = target: T3, Amine oxidase [flavin-containing] B (Homo sapiens, UniProt P27338); assay: Inhibition of recombinant human MAO-B expressed in supersomes using kynuramine as substrate by LC-MS/MS analysis
T3 sequence (P27338 whole entry): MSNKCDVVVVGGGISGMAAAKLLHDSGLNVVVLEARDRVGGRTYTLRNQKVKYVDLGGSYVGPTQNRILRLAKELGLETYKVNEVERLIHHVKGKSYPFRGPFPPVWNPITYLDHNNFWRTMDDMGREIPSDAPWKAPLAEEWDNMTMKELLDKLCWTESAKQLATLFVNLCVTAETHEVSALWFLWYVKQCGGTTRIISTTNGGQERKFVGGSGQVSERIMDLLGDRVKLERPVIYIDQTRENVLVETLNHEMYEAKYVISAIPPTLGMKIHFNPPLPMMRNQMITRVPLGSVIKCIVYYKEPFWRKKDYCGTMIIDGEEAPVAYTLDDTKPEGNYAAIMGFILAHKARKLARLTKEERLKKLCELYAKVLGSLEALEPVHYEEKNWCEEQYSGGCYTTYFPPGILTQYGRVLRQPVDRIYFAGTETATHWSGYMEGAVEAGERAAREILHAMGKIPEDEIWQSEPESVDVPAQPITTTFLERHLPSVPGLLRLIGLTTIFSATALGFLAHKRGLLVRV

Chain of Voltage-gated inwardly rectifying potassium channel KCNH2 (Q12809 whole entry): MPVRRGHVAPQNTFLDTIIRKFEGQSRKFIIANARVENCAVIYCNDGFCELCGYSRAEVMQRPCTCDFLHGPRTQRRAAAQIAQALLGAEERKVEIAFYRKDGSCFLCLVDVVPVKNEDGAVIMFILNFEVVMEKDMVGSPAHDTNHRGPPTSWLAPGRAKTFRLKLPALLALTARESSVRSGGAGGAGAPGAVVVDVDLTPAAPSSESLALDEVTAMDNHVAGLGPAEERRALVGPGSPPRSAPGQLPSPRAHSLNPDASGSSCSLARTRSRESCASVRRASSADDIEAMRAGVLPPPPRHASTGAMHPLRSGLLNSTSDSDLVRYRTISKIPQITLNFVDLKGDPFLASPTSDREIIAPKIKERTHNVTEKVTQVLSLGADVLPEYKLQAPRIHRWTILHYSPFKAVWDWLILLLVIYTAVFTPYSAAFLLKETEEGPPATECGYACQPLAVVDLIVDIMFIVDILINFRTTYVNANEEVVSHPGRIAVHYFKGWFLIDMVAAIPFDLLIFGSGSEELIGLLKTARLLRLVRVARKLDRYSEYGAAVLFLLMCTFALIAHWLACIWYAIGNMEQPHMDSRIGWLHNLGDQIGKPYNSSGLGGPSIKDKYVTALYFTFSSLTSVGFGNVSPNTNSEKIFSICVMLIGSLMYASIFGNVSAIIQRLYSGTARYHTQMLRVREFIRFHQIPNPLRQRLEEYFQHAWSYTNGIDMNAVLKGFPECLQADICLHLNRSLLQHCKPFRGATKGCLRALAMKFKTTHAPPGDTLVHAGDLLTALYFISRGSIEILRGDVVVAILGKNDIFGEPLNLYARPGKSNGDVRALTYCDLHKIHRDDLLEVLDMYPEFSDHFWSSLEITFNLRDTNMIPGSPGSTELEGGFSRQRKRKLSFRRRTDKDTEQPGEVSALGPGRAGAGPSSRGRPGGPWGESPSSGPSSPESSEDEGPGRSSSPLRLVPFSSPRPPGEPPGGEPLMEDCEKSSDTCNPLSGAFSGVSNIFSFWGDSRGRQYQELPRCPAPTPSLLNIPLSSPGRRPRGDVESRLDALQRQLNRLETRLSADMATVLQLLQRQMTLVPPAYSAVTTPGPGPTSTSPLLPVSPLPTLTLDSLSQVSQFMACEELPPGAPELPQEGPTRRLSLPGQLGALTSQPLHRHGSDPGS

Kd [1] [µM]	IC50 [3] [µM]	IC50 [4] [µM]	IC50 [5] [µM]	Compound	IC50 [2] [µM]
0.008	0.041	–	–	Cc1ccc(-c2ncc(OC[C@@H]3CCNC3)cc2-c2ccc(C#N)cc2)cc1	3.2
–	–	> 25	> 25	Cc1ccc([C@@H]2CN(C(=O)[C@H]3CC[C@H](CN)CC3)C[C@H]2c2ccc(C#N)cc2)cc1	12.1
